Measurements from patent US4759929A, “Novel treatment” (Cabinet Harle & Phelip, priority 1987, dated 1988).

Experiments:
E. Coli DNA polymerases = conditions: known; cited from earlier work
[1] = Pharmacokinetic studies in patient, I.V bolus infusion; assay type: in vivo, human; conditions: patient 1; I.V bolus infusion (about two minutes)
[2] = tested on: spontaneous mammary tumors; conditions: C3 HBi mice; cited from earlier work
[3] = tested on: natural killer (NK) and killer cells (ADCC) function; conditions: cited from earlier work
[4] = tested on: MLV reverse transcriptase; conditions: previously described; cited from earlier work
β DNA polymerase = β DNA polymerase (Mus musculus, UniProt Q8K409); conditions: cited from earlier work
LAV = assay: Isolation of LAV from peripheral blood T cell cultures and cocultures of treated patients (RT activity in supernatant)
T4 + Lymphocytes = assay: T4+ lymphocytes number in treated patients; assay type: in vivo, human; conditions: four patients; after therapy
[5] = target: T1, LAV reverse transcriptase (Human immunodeficiency virus type 1 group M subtype B, UniProt P03367); assay: Reverse transcriptase assay, LAV virus (non purified RT); assay type: biochemical, Lymphadenopathy associated virus (LAV); conditions: for ID50: LAV virus (non purified RT), 1 hour at 37° C.; for Percent inhibition / p. mole incorporated: LAV virus; for p. mole incorporated: control 0.13
T1 construct: made in house; host or cells: LAV virions, PEG concentrated and sucrose gradient purified
Method: Lymphadenopathy associated virus (LAV) was purified. Briefly, after clarification, the virus was concentrated by PEG (10 percent), and then centrifuged for 1.5 hours at 55,000 g (IEC type SB 498 rotor) on a 10 to 60 percent sucrose gradient. Reverse transcriptase assays were performed on each fraction and the maximum RT activity was found at a density of 1.16 and corresponded to the purified virus fraction.
(§1) Assay mixtures are indicated in the legend of Table I. The reaction was stopped by treating the mixtures with sodium pyrophosphate and trichloracetic acid. The results are given as picomoles of tritiated deoxyribonucleotides monophosphate incorporated into DNA after 1 hour at 37° C.
(§2) HPA 23 inhibition of reverse transcriptase of SAIDS virus and LAV.
(§3) Reaction mixture (50 μl) contains: Tris 50 mM pH 7.9, 5 mM MgCl2,
(§4) OD/ml Oligo dT 12-18, and 200 pM ^3 HTTP (25 Ci/mM).

encephalomyocarditis = conditions: mice; cited from earlier work
AIDS or related syndrome = assay: Clinical features after HPA23 treatment; assay type: in vivo, human
[6] = target: T2, LAV purified reverse transcriptase (Human immunodeficiency virus type 1 group M subtype B, UniProt P03367); assay: Reverse transcriptase assay, LAV purified RT; assay type: biochemical, Lymphadenopathy associated virus (LAV); conditions: for p. mole incorporated: control 0.11
T2 construct: made in house
Method: LAV RT was purified. Briefly, 10^9 LAV infected cells were washed two times in PBS, resuspended in Tris 50 mM (pH 7.5) KCl 500 mM, ethylene diamine tetracetic acid (EDTA) 0.1 mM, dithiothreitol 1 mM and glycerol 10 percent, and frozen in liquid nitrogen. After incubation with Triton X100 0.01 percent at 37° C. (15 Min), cell homogenates were centrifuged at 100,000 g for one hour and the supernatant dialyzed six hours (KCl 100 mM). The dialyzate was chromatographed on a phosphocellulse column. RT and DNA polymerases were eluted from the column with a 0.1M to 1M KCl gradient.
as §1, §2, §3, §4

pancreatic DNase = pancreatic DNase (Bos taurus, UniProt P00639); assay: Inhibition of pancreatic DNase (unpublished results); assay type: biochemical
E. Coli RNase H = E. Coli RNase H (Escherichia coli, UniProt P0A7Y4); assay: Inhibition of E. Coli RNase H (unpublished results); assay type: biochemical
pancreatic RNase = pancreatic RNase (Bos taurus, UniProt P61823); assay: Inhibition of pancreatic RNase (unpublished results); assay type: biochemical
[7] = tested on: lymphatic choriomeningitis virus; conditions: adult mice acutely infected; cited from earlier work
cell growth = assay: Inhibition of cell growth; assay type: cell-based
E. Coli RNA polymerases = E. Coli RNA polymerases (Escherichia coli, UniProt P0A8T7+P0A8V2); conditions: known; cited from earlier work
mouse α DNA polymerase = mouse α DNA polymerase (Mus musculus, UniProt P33609); conditions: required doses much higher than those inhibiting reverse transcriptase; cited from earlier work
mouse α DNA polymerase, sequence (P33609 whole entry): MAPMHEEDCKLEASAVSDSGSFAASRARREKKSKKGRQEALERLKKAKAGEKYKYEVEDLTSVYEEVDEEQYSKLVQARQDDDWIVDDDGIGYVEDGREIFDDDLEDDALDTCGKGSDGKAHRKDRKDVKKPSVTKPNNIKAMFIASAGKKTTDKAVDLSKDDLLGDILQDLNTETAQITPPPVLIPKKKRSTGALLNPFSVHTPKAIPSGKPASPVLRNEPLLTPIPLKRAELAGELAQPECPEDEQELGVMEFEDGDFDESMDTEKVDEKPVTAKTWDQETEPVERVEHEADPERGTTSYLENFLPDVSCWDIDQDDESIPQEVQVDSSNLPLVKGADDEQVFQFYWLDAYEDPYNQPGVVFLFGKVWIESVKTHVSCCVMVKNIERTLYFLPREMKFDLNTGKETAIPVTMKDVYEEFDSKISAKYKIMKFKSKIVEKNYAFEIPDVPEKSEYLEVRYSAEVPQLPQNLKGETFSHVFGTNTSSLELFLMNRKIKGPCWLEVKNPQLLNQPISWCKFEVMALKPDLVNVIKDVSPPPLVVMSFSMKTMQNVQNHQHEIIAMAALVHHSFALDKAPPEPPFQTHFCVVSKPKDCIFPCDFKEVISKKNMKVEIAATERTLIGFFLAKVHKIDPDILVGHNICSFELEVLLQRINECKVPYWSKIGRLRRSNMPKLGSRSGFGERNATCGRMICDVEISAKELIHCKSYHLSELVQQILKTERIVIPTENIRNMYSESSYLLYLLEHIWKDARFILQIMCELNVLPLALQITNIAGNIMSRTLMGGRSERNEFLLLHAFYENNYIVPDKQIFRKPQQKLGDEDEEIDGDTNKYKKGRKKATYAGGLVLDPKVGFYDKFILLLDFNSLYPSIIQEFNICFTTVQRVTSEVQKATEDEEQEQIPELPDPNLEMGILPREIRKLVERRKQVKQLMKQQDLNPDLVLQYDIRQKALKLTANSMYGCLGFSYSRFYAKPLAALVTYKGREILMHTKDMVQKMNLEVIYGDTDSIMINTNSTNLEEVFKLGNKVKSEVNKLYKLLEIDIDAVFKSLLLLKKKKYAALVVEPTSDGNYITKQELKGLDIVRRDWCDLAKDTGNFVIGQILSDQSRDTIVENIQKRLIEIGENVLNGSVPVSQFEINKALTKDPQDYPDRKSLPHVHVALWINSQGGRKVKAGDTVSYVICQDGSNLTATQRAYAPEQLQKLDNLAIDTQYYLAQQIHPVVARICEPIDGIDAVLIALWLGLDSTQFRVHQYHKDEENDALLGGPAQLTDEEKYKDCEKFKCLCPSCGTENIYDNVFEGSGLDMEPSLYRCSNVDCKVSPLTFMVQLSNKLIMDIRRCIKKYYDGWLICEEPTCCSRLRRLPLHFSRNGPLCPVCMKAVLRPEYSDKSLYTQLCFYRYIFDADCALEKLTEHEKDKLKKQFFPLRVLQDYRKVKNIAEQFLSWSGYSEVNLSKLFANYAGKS

E. Coli RNase H, sequence (P0A7Y4 whole entry): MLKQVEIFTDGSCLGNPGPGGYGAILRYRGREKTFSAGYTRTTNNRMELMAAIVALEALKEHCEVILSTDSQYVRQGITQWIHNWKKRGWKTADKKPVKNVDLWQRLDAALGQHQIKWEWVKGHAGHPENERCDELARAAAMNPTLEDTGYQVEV
pancreatic RNase, sequence (P61823 27-150): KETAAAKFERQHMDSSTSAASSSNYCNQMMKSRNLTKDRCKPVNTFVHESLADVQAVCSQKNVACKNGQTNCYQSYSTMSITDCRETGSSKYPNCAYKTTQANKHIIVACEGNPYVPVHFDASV
E. Coli RNA polymerases, sequence (P0A8V2 whole entry): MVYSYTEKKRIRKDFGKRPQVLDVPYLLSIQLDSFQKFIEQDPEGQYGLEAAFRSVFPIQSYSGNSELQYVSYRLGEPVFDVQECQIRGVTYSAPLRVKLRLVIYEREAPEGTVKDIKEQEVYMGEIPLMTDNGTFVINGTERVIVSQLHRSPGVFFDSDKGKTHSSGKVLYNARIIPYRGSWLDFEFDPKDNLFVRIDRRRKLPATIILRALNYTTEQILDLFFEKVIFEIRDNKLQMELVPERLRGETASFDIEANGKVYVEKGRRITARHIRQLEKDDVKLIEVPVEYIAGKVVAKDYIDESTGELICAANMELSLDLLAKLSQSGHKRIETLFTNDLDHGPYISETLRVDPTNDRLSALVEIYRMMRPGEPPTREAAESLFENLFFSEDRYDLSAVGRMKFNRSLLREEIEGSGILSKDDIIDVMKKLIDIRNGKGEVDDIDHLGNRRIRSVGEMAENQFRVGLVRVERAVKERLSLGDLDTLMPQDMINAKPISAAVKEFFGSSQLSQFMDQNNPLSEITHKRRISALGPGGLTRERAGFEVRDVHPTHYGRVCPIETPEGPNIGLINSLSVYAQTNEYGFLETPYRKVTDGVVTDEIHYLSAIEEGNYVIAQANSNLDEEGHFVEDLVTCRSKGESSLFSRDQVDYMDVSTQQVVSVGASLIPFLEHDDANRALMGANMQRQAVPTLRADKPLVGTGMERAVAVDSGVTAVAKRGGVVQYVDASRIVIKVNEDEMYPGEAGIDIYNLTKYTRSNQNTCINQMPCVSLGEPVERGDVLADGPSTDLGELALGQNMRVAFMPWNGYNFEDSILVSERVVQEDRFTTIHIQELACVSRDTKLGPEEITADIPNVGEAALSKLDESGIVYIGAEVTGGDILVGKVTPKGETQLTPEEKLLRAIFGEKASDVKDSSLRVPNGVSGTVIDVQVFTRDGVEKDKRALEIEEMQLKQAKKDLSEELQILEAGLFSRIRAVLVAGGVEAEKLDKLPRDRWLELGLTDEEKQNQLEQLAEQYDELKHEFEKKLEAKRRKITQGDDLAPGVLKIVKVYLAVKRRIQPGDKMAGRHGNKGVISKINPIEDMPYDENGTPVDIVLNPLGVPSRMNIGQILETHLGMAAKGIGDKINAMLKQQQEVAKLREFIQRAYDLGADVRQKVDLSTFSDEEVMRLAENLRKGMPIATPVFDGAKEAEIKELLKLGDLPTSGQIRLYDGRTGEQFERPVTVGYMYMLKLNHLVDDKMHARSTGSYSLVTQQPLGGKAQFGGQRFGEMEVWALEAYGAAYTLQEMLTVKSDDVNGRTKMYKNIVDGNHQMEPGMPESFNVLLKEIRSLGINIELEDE
E. Coli RNA polymerases, sequence (P0A8T7 whole entry): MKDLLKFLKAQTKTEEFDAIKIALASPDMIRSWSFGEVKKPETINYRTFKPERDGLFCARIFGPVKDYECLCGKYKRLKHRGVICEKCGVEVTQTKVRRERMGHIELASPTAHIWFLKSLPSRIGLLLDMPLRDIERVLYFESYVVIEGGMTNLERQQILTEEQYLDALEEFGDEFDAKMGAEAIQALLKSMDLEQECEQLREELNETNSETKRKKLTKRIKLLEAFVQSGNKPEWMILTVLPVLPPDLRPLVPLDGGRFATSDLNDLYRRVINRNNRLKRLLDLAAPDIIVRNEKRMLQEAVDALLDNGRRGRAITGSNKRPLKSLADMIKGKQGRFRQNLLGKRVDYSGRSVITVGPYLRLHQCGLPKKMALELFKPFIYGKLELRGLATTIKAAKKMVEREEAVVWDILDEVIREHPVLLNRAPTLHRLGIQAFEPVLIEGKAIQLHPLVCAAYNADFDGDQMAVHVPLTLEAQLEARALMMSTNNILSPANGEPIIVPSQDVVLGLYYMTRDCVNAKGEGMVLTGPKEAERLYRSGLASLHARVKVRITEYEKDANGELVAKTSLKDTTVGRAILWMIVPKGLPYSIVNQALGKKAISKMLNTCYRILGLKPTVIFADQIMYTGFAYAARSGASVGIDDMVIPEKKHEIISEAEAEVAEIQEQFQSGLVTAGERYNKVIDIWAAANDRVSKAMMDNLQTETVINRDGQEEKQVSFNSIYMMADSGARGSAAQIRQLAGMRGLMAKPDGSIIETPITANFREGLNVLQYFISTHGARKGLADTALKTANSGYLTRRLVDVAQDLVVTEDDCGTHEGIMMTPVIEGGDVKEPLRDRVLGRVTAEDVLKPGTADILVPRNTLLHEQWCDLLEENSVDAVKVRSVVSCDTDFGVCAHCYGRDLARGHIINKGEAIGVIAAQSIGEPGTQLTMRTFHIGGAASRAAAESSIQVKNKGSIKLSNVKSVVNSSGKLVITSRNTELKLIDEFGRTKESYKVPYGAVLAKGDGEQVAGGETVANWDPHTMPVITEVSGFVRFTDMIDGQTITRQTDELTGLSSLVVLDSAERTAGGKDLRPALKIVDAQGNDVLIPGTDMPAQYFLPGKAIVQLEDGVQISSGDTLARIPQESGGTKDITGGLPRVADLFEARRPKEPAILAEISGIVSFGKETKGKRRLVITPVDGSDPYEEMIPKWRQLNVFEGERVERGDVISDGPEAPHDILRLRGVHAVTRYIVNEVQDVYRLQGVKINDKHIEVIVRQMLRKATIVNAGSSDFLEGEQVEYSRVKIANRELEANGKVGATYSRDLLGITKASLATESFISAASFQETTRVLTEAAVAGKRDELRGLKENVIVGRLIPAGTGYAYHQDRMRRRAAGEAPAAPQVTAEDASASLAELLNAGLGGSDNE
E. Coli RNA polymerases, sequence (P0A7Z4 whole entry partner): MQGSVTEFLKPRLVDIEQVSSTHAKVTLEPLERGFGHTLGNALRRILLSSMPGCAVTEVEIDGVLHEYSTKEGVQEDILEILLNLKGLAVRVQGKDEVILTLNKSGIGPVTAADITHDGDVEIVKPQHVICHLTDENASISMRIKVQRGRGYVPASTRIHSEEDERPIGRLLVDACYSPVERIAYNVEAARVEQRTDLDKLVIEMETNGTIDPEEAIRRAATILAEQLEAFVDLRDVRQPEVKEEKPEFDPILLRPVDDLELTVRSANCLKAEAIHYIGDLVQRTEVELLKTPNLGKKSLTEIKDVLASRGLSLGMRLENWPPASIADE
E. Coli RNA polymerases, sequence (P0A800 whole entry partner): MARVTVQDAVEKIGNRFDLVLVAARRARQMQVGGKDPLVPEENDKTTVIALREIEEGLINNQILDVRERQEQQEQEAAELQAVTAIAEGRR

What does the source list for “Ammonium-9-antimonio-III-21-tungsto-VII-sodate [HPA 23]”?
inhibition of E. Coli DNA polymerases (E. Coli DNA polymerases): strong inhibitor; half life [1]: < 20 min; occurrence of spontaneous mammary tumors [2]: reduces the occurance of spontaneous mammary tumors; recovery of the platelet count to the pretreatment value (each adult patient): between 21st day and the 45th day after; platelet toxicity (four patients): some platelet toxicity in three out of four cases; renal toxicity (four patients): No new renal toxicity was observed; recovery of hepatic transaminases to the pretreatment range (patients 2, 3 and 4): ≤ 21 days; elevations of the hepatic transaminases (patients 2, 3 and 4 during treatment): 2 ×normal value; effect on NK and ADCC function [3]: stimulating agent; inhibition of MLV reverse transcriptase [4]: competitive inhibitor; effect on β DNA polymerase (β DNA polymerase): without any effect; LAV detection in T cell cultures (LAV; patient 1, during each period of treatment, I.V bolus, 1 mg/kg to 3.3 mg/kg): LAV could no longer be detected; LAV isolation, even after cocultivation (LAV; patients 1 and 2, one month after the end of the treatment): LAV was not isolated; LAV detection in T cell cocultures (LAV; patients 2, 3 and 4, 30 days after the end of the treatment): LAV was again detected in the T cell cocultures in two of the three patients (3 and 4) at a very low level; LAV isolation from primary cultures and cocultures of patient T cells (LAV; patients 2, 3 and 4, following two weeks treatment, 200 mg IV infusion per day during 15 days): no virus (LAV) was isolated; absolute numbers of T4 + cells and T4 /T8 ratio (T4 + Lymphocytes): did not change significantly; ID50 ([5]; 60 min): 30.5 µg/mL; ID50 ([5]; listed as HPA23, 60 min): 30 µg/mL; Percent inhibition ([5]; inhibitor 10 μg/ml): 2.4%; p. mole incorporated ([5]; inhibitor 10 μg/ml): 0.127 p. mole; Percent inhibition ([5]; inhibitor 25 μg/ml): 18.6%; p. mole incorporated ([5]; inhibitor 25 μg/ml): 0.013 p. mole; Percent inhibition ([5]; inhibitor 50 μg/ml): 84.4%; p. mole incorporated ([5]; inhibitor 50 μg/ml): 0.098 p. mole; Percent inhibition ([5]; inhibitor 60 μg/ml): 100%; p. mole incorporated ([5]; inhibitor 60 μg/ml): 0 p. mole; activity against lethal encephalomyocarditis infections (encephalomyocarditis): some activity; Kaposi's sarcoma evolution (AIDS or related syndrome; patient 3, 4 months outcome): stabilized their mucosal evolutive K.S., without regression; opportunistic infections (AIDS or related syndrome; patient one, one year after the end of HPA23 therapy): did not present anymore other opportunistic infections; ID50 ([6]; 1 hour at 37° C.): 11 µg/mL; Percent inhibition ([6]; inhibitor 0.5 μg/ml): 4.5%; p. mole incorporated ([6]; inhibitor 0.5 μg/ml): 0.105 p. mole; Percent inhibition ([6]; inhibitor 1 μg/ml): 8.2%; p. mole incorporated ([6]; inhibitor 1 μg/ml): 0.101 p. mole; Percent inhibition ([6]; inhibitor 5 μg/ml): 33.6%; p. mole incorporated ([6]; inhibitor 5 μg/ml): 0.073 p. mole; Percent inhibition ([6]; inhibitor 10 μg/ml): 43.6%; p. mole incorporated ([6]; inhibitor 10 μg/ml): 0.062 p. mole; Percent inhibition ([6]; inhibitor 20 μg/ml): 61.8%; p. mole incorporated ([6]; inhibitor 20 μg/ml): 0.042 p. mole; Percent inhibition ([6]; inhibitor 30 μg/ml): 70.2%; p. mole incorporated ([6]; inhibitor 30 μg/ml): 0.032 p. mole; Percent inhibition ([6]; inhibitor 60 μg/ml): 94%; p. mole incorporated ([6]; inhibitor 60 μg/ml): 0.007 p. mole; Percent inhibition ([6]; inhibitor 100 μg/ml): 100%; p. mole incorporated ([6]; inhibitor 100 μg/ml): 0 p. mole; inhibition of pancreatic DNase (pancreatic DNase): does not inhibit; inhibition of E. Coli RNase H (E. Coli RNase H): does not inhibit; inhibition of pancreatic RNase (pancreatic RNase): does not inhibit; mortality [7]: reduces the mortality; dose required to inhibit the cell growth relative to the one blocking RT activity (cell growth): twenty times higher; inhibition of E. Coli RNA polymerases (E. Coli RNA polymerases): strong inhibitor; inhibition of mouse α DNA polymerase (mouse α DNA polymerase): inhibitor
